This experiment has as its system P388 leukemia ip, CD2F1 mice, survival T/C. Nature of the experiment: NCI In Vivo Anticancer Drug Screen. Data for tumor model P388 Leukemia (intraperitoneal) in CD2F1 (CDF1) mice. As to conditions: endpoint: median survival time, higher = longer survival. Summed up:
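Mice carrying the transplanted tumor received test compound or vehicle. Survival was recorded in each group, and the value is the treated-group measurement divided by that of the vehicle-treated control group.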

The mark [1] stands for this setting: dose: 60.0 mg/kg/injection, schedule: Q01DX005 (ip), vehicle: saline with Tween-80.
The mark [2] stands for this setting: dose: 50.0 mg/kg/injection, schedule: Q01DX005 (ip), vehicle: Klucel (hydroxypropylcellulose) (HPC).
Where [3] appears, read: dose: 100.0 mg/kg/injection, schedule: Q01DX005 (ip), vehicle: Klucel (hydroxypropylcellulose) (HPC).
[4] abbreviates: dose: 200.0 mg/kg/injection, schedule: Q01DX005 (ip), vehicle: Klucel (hydroxypropylcellulose) (HPC).
Where [5] appears, read: dose: 50.0 mg/kg/injection, schedule: Q01DX009 (ip), vehicle: saline.
Setting [6] is: dose: 100.0 mg/kg/injection, schedule: Q01DX009 (ip), vehicle: saline.
[7] abbreviates: dose: 50.0 mg/kg/injection, schedule: Q01DX005 (ip), vehicle: saline with Tween-80.
The mark [8] stands for this setting: dose: 100.0 mg/kg/injection, schedule: Q01DX005 (ip), vehicle: saline with Tween-80.
[9] abbreviates: dose: 200.0 mg/kg/injection, schedule: Q01DX005 (ip), vehicle: saline with Tween-80.

The source of these data is PubChem BioAssay AID330 (DTP/NCI, 2004).

The structures appear in SMILES notation. Where “and” joins values, the source holds several entries; their conditions need not be identical. Equal values may be shown once. Inconclusive results and toxic doses are left out. Square brackets hold non-standard residues; d marks the D form. Peptide text beside a SMILES is read from it. * marks the point of attachment. ξ: configuration not given here. Boc = CC(C)(C)OC(=O)*; ξP = O=C(O)C1CCCN1

On to `COc1cccc2c1C(=O)c1c(O)c3c(c(O)c1C2=O)C[C@@](O)(C(=O)O)C[C@@H]3OC1CC(N)C(O)C(C)O1` (some centres not stated), for which the T/C (dose: 3.13 mg/kg/injection, schedule: Q01DX009 (ip), vehicle: water) was 88 % of control; the T/C (dose: 6.25 mg/kg/injection, schedule: Q01DX009 (ip), vehicle: water) was 123 % of control; the T/C (dose: 18.75 mg/kg/injection, schedule: Q01DX001 (ip), vehicle: water) is 114 % of control; the T/C (dose: 37.5 mg/kg/injection, schedule: Q01DX001 (ip), vehicle: water) is 121 % of control; the T/C (dose: 50.0 mg/kg/injection, schedule: Q01DX009 (ip), vehicle: water) is 155 % of control; the T/C (dose: 75.0 mg/kg/injection, schedule: Q01DX001 (ip), vehicle: water) is 114 % of control. The T/C is 158 % of control (dose: 100.0 mg/kg/injection, schedule: Q01DX009 (ip), vehicle: water); 122 % of control (dose: 150.0 mg/kg/injection, schedule: Q01DX001 (ip), vehicle: water); 123 % of control (dose: 300.0 mg/kg/injection, schedule: Q01DX001 (ip), vehicle: water).
For `NC(=O)C(=O)NNC(=O)CCn1[nH]c(=O)c(Cl)c(Cl)c1=O`, the T/C is, setting by setting: under setting [1], 100 % of control; (dose: 120.0 mg/kg/injection, schedule: Q01DX005 (ip), vehicle: saline with Tween-80) 103 % of control; (dose: 240.0 mg/kg/injection, schedule: Q01DX005 (ip), vehicle: saline with Tween-80) 98 % of control.
As for `O=C1CSc2nc3c(I)cc(I)cc3c(=O)n21`, the T/C under setting [2] is 101 % of control, the T/C under setting [3] was 100 % of control and the T/C under setting [4] is 98 % of control.
On to `S=C(N/N=C/c1ccncc1)Nc1ccccc1`, for which the T/C by setting is: (dose: 60.0 mg/kg/injection, schedule: Q01DX005 (ip), vehicle: Klucel (hydroxypropylcellulose) (HPC)) 99 % of control; (dose: 120.0 mg/kg/injection, schedule: Q01DX005 (ip), vehicle: Klucel (hydroxypropylcellulose) (HPC)) 100 % of control; (dose: 240.0 mg/kg/injection, schedule: Q01DX005 (ip), vehicle: Klucel (hydroxypropylcellulose) (HPC)) 91 % of control.
For `O=N[O-].O=N[O-].O=[N+]([O-])O.[Co+3].[NH-]CC[NH-].[NH-]CC[NH-]`, the T/C (dose: 12.5 mg/kg/injection, schedule: Q01DX009 (ip), vehicle: saline) is 104 % of control; the T/C (dose: 25.0 mg/kg/injection, schedule: Q01DX009 (ip), vehicle: saline) is 98 % of control; the T/C under setting [5] was 100 % of control and 98 % of control; the T/C under setting [6] was 100 % of control.
Take `C=C1CCN(c2ccc(OCC)cc2)C1=O`: the T/C (dose: 4.0 mg/kg/injection, schedule: Q01DX009 (ip), vehicle: saline + alcohol) is 102 % of control and 113 % of control and 94 % of control; the T/C (dose: 8.0 mg/kg/injection, schedule: Q01DX009 (ip), vehicle: saline + alcohol) is 101 % of control and 108 % of control and 91 % of control; the T/C (dose: 16.0 mg/kg/injection, schedule: Q01DX009 (ip), vehicle: saline + alcohol) was 100 % of control and 91 % of control; the T/C (dose: 32.0 mg/kg/injection, schedule: Q01DX009 (ip), vehicle: saline + alcohol) is 106 % of control and 111 % of control and 94 % of control; the T/C (dose: 64.0 mg/kg/injection, schedule: Q01DX009 (ip), vehicle: saline + alcohol) is 100 % of control and 108 % of control and 95 % of control.
With `O=C(O)C[CH2][Sn]([Cl])([Cl])[CH2]CC(=O)O`, the T/C was 98 % of control under setting [2], 98 % of control under setting [3] and 91 % of control under setting [4].
For `Clc1ccc(Cl)c(NNc2cc(Cl)ccc2Cl)c1`, the T/C is, setting by setting: (dose: 25.0 mg/kg/injection, schedule: Q01DX009 (ip), vehicle: Klucel (hydroxypropylcellulose) (HPC)) 96 % of control; (dose: 50.0 mg/kg/injection, schedule: Q01DX009 (ip), vehicle: Klucel (hydroxypropylcellulose) (HPC)) 91 % of control; (dose: 100.0 mg/kg/injection, schedule: Q01DX009 (ip), vehicle: Klucel (hydroxypropylcellulose) (HPC)) 87 % of control; (dose: 200.0 mg/kg/injection, schedule: Q01DX009 (ip), vehicle: Klucel (hydroxypropylcellulose) (HPC)) 102 % of control.
Turning to `Nc1ncc(Cl)c2ccccc12`, the T/C reads like this: (dose: 6.25 mg/kg/injection, schedule: Q01DX005 (ip), vehicle: saline with Tween-80) 99 % of control; (dose: 12.5 mg/kg/injection, schedule: Q01DX005 (ip), vehicle: saline with Tween-80) 97 % of control; (dose: 25.0 mg/kg/injection, schedule: Q01DX005 (ip), vehicle: saline with Tween-80) 89 % of control; under setting [7], 101 % of control.
Consider `COc1ccc(Cc2nnc3nc(OC)c(-c4ccc(OC)cc4)n3n2)cc1`, for which the T/C is 108 % of control and 87 % of control under setting [7]; 108 % of control under setting [8]; 86 % of control and 98 % of control under setting [9].
Take `OCCNCCNc1ccnc2c1ccc1ccccc12`: the T/C under setting [7] was 105 % of control.
For `CC(=O)O.[In]`, under “dose: 0.1 mg/mouse/injection, schedule: Q01DX020 (oral), vehicle: saline with Tween-80”, the T/C is 100 % of control.
In the case of `CCOC(=O)C(CCC#N)(C(=O)Cc1ccc(OC)c(OC)c1)C(=O)OCC`, the T/C by setting is: (dose: 25.0 mg/kg/injection, schedule: Q01DX009 (ip), vehicle: other) 101 % of control; (dose: 50.0 mg/kg/injection, schedule: Q01DX009 (ip), vehicle: other) 103 % of control; (dose: 100.0 mg/kg/injection, schedule: Q01DX009 (ip), vehicle: other) 106 % of control; (dose: 200.0 mg/kg/injection, schedule: Q01DX009 (ip), vehicle: other) 103 % of control; (dose: 400.0 mg/kg/injection, schedule: Q01DX009 (ip), vehicle: other) 103 % of control.
Take `CN(C)c1ccc(C(N)=O)cn1`: the T/C is, setting by setting: (dose: 1.56 mg/kg/injection, schedule: Q01DX009 (ip), vehicle: saline with Tween-80) 109 % of control; (dose: 6.25 mg/kg/injection, schedule: Q01DX009 (ip), vehicle: saline with Tween-80) 90 % of control; (dose: 12.5 mg/kg/injection, schedule: Q04DX003 (ip), vehicle: saline with Tween-80) 109 % of control; (dose: 25.0 mg/kg/injection, schedule: Q04DX003 (ip), vehicle: saline with Tween-80) 118 % of control; (dose: 50.0 mg/kg/injection, schedule: Q04DX003 (ip), vehicle: saline with Tween-80) 118 % of control.
As to `CC1(C)CC(=O)c2c(ncc3cc4c(cc23)OCO4)C1`, the T/C by setting is: (dose: 100.0 mg/kg/injection, schedule: Q04DX002 (ip), vehicle: saline with Tween-80) 110 % of control; (dose: 200.0 mg/kg/injection, schedule: Q04DX002 (ip), vehicle: saline with Tween-80) 118 % of control.
Regarding `Cn1/c(=N\N=C\c2ccccc2OCCO)sc2ccccc21`, the T/C (dose: 50.0 mg/kg/injection, schedule: Q01DX009 (ip), vehicle: saline + alcohol) was 103 % of control; the T/C (dose: 100.0 mg/kg/injection, schedule: Q01DX009 (ip), vehicle: saline + alcohol) is 100 % of control; the T/C (dose: 200.0 mg/kg/injection, schedule: Q01DX009 (ip), vehicle: saline + alcohol) is 101 % of control.
Regarding `N#CCSCC(N)C(=O)O` (configuration not stated), the T/C is 103 % of control under setting [7], 105 % of control under setting [8] and 105 % of control under setting [9].
Consider `O=C(O)C(O)C(O)C1[O][Sb]([c]2ccc([N+](=O)[O-])cc2)[O]C1CO` (configuration not stated), for which the T/C is 98 % of control (dose: 50.0 mg/kg/injection, schedule: Q01DX005 (ip), vehicle: saline); 107 % of control (dose: 100.0 mg/kg/injection, schedule: Q01DX005 (ip), vehicle: saline); 118 % of control (dose: 200.0 mg/kg/injection, schedule: Q01DX005 (ip), vehicle: saline).
On to `CCOC(=O)C(=O)c1cn(C)c(=O)n(C)c1=O`, for which the T/C (dose: 50.0 mg/kg/injection, schedule: Q01DX009 (ip), vehicle: saline with Tween-80) was 106 % of control; the T/C (dose: 100.0 mg/kg/injection, schedule: Q01DX009 (ip), vehicle: saline with Tween-80) is 104 % of control; the T/C (dose: 200.0 mg/kg/injection, schedule: Q01DX009 (ip), vehicle: saline with Tween-80) is 104 % of control.
As to `O=[N+]([O-])c1cn(CCNc2c3ccccc3nc3ccccc23)cn1`, under setting [1], the T/C was 112 % of control.
As for `COC(=O)C1CCCN1C(=O)CNC(=O)OC(C)(C)C` (stereo not drawn) (Boc-Gly-[ξP]-OMe), the T/C reads like this: under setting [5], 105 % of control; under setting [6], 99 % of control; (dose: 200.0 mg/kg/injection, schedule: Q01DX009 (ip), vehicle: saline) 99 % of control; (dose: 400.0 mg/kg/injection, schedule: Q01DX009 (ip), vehicle: saline) 90 % of control.
